From US20240246946A1, “MODULATORS OF TREX1” (Constellation Pharmaceuticals, Inc., priority 2021, published 2024)

Key:
[1] = target: T1, full length human TREX1 (Homo sapiens, UniProt Q9NSU2); assay: hTREX1 Biochemical Assay (fluorescence, dsDNA substrate degradation); settings: biochemical, read-out: hTREX1 IC50
T1 construct: N-terminally His-Tev tagged full length human TREX1; made in house; host or cells: E. coli
T1 sequence (Q9NSU2 1-314): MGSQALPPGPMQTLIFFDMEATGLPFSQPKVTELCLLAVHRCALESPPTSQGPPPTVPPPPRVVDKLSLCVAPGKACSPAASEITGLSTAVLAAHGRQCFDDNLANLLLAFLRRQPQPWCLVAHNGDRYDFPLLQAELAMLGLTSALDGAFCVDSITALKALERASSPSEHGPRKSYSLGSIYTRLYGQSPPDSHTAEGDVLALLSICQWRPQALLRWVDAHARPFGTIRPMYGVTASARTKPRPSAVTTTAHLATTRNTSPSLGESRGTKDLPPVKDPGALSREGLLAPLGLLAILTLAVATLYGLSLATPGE
In short: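 Cleavage of 60 nM TEX615/quencher-labelled dsDNA in pH 7.4 Tris buffer with 5 mM MgCl2, 1.0% DMSO, run 18 hours at 25° C, EDTA-quenched; fluorescence read-out.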

[2] = target: T2, full length mouse TREX1 (Mus musculus, UniProt Q91XB0); assay: mTREX1 Biochemical Assay (fluorescence, dsDNA substrate degradation); settings: biochemical, read-out: mTREX1 IC50
T2 construct: N-terminally His-Tev tagged full length mouse TREX1; made in house; host or cells: E. coli
T2 sequence (Q91XB0 1-314): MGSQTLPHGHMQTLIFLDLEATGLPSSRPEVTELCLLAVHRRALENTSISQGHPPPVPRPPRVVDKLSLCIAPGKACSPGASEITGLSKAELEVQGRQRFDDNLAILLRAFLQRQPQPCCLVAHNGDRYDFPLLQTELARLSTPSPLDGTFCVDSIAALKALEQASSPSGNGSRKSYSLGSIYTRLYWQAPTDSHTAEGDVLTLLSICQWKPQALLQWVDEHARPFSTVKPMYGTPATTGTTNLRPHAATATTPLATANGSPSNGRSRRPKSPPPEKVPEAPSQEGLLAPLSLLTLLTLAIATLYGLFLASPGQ
In short: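 Reaction run 18 h at 25° C. with 60 nM TEX615/quencher-labelled dsDNA and 6 pM mouse TREX1 in Tris buffer (pH 7.4, 5 mM MgCl2, 1.0% DMSO), enzyme having sat 4 h with compound across 10 concentrations. EDTA quench; substrate degradation measured as fluorescence increase.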

[3] = target: T3, human TREX2 (residues M44-A279) (Homo sapiens, UniProt Q9BQ50); assay: hTREX2 Biochemical Assay (fluorescence, dsDNA substrate degradation); settings: biochemical selectivity for hTREX1 vs hTREX2
T3 construct: human TREX2 (residues M44-A279, expressed in E. coli); made in house; host or cells: E. coli
T3 sequence (Q9BQ50 44-279 isoform Q9BQ50-1): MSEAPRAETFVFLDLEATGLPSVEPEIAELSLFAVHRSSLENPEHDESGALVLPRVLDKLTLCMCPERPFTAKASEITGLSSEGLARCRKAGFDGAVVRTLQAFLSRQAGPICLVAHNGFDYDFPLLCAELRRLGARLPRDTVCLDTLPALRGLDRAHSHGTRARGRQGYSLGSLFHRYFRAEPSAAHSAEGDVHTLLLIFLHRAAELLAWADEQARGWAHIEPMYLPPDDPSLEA
In short: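 N-His-Tev E. coli enzyme (50 pM) pre-incubated with compound 4 h at 25 °C, then 60 nM TEX615/quencher dsDNA added; 18 h at 25 °C, pH 7.4 Tris buffer with 5 mM MgCl2, 1.0% DMSO. EDTA-quenched; fluorescence 570 ex/615 em from liberated fluorophore, 10-point dose-response.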

[4] = target: T4, hTREX1 (Homo sapiens, UniProt Q9NSU2); assay: hTREX1 HCT116 Cell Assay (HCT116 dual cells, Lucia luciferase reporter of Type I interferon induction); assay type: cell-based; settings: TREX1i 4 h before pBR322/BstNI transfection, read after 48 h
T4 construct: host or cells: HCT116 dual cells
T4 sequence (Q9NSU2 1-314): T1 sequence (Q9NSU2 1-314)
In short: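 HCT116 dual cells carrying an ISRE-type STAT1/STAT2-driven secreted Lucia luciferase reporter were pretreated with TREX1 inhibitor for 4 h (≤0.1% DMSO), then transfected with pBR322/BstNI DNA (100 ng/well, Lipofectamine LTX). Luciferase in medium read after 48 h at 37 °C.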

In the case of CCn1cc(C(c2cc(F)ccc2Cl)C(C)c2nc(C(=O)Nc3cnoc3)c(O)c(=O)n2C)cn1 (single isomer, unassigned) [Example 60 D1E1], the IC50 [1] is reported as under 1 nM, the IC50 [2] is reported as 1 to 10 nM and the “hTREX1 vs hTREX2 selectivity” value [3] is reported as “B (B = 25 to 50-fold selective for hTREX1)”. For the same compound, the IC50 [4] was 10 to 100 nM.

For Cc1cc(C(c2ccccc2C#N)C(C)c2nc(C(=O)Nc3cnoc3)c(O)c(=O)n2C)n(C)n1 (single isomer, unassigned) [Example 63 D1E1], the IC50 [1] was under 1 nM, the IC50 [2] was 1 to 10 nM and the “hTREX1 vs hTREX2 selectivity” value [3] was “C (C = >50 fold selective for hTREX1)”. For the same compound, the IC50 [4] was under 10 nM.

With COCCn1ncc(C(c2ccccc2C#N)C(C)c2nc(C(=O)Nc3cnoc3)c(O)c(=O)n2C)c1C (single isomer, unassigned) [Example 69 D1E1] the IC50 [1] was 1 to 10 nM, the IC50 [2] was 1 to 10 nM and the “hTREX1 vs hTREX2 selectivity” value [3] was “B (B = 25 to 50-fold selective for hTREX1)”. It also gave an IC50 [4] of 10 to 100 nM.

CCn1cc(C(c2ccccc2C#N)C(C)c2nc(C(=O)Nc3cnoc3)c(O)c(=O)n2C)c(C)n1 (single isomer, unassigned) [Example 70 D1E1] was tested, and the IC50 [1] was under 1 nM, the IC50 [2] was under 1 nM and the “hTREX1 vs hTREX2 selectivity” value [3] was “C (C = >50 fold selective for hTREX1)”. It also gave an IC50 [4] of under 10 nM.

With COCCn1cc(C(c2ccccc2C#N)C(C)c2nc(C(=O)Nc3cnoc3)c(O)c(=O)n2C)c(C)n1 (single isomer, unassigned) [Example 71 D1E1] the IC50 [1] was under 1 nM, the IC50 [2] was under 1 nM and the “hTREX1 vs hTREX2 selectivity” value [3] was “C (C = >50 fold selective for hTREX1)”. It also gave an IC50 [4] of under 10 nM.

CC(c1nc(C(=O)Nc2cnoc2)c(O)c(=O)n1C)C(c1cnn(C)c1)c1ccccc1Cl (single isomer, unassigned) [Example 77 D1E2] was tested, and the IC50 [1] was over 10 nM, the IC50 [2] was over 10 nM and the “hTREX1 vs hTREX2 selectivity” value [3] was “A (A = <25 fold selective for hTREX1)”. It also gave an IC50 [4] of over 100 nM.

For CC(c1nc(C(=O)Nc2cnoc2)c(O)c(=O)n1C)C(c1cnn(C)c1)c1ccccc1Cl (single isomer, unassigned) [Example 77 D2E1], the IC50 [1] was over 10 nM, the IC50 [2] was over 10 nM and the “hTREX1 vs hTREX2 selectivity” value [3] was “A (A = <25 fold selective for hTREX1)”. The IC50 [4] was over 100 nM.

With CC(c1nc(C(=O)Nc2cnoc2)c(O)c(=O)n1C)C(c1nnn(C)n1)c1ccccc1C#N (single isomer, unassigned) [Example 79 D1E2] the IC50 [1] was 1 to 10 nM, the IC50 [2] was over 10 nM and the “hTREX1 vs hTREX2 selectivity” value [3] was “B (B = 25 to 50-fold selective for hTREX1)”. The IC50 [4] was over 100 nM.

In the case of CC(c1nc(C(=O)Nc2cnoc2)c(O)c(=O)n1C)C(c1cnn(C)c1)c1ccc(O)cc1C#N (single isomer, unassigned) [Example 80 D1E1], the IC50 [1] is reported as under 1 nM, the IC50 [2] is reported as 1 to 10 nM and the “hTREX1 vs hTREX2 selectivity” value [3] is reported as “C (C = >50 fold selective for hTREX1)”. The IC50 [4] was over 100 nM.

With Cc1ncc(C(c2ccccc2C#N)C(C)c2nc(C(=O)Nc3cnoc3)c(O)c(=O)n2C)nc1C (single isomer, unassigned) [Example 81 D2E1] the IC50 [1] was 1 to 10 nM, the IC50 [2] was over 10 nM and the “hTREX1 vs hTREX2 selectivity” value [3] was “B (B = 25 to 50-fold selective for hTREX1)”. It also gave an IC50 [4] of over 100 nM.

For Cc1cnc(C)c(C(c2ccccc2C#N)C(C)c2nc(C(=O)Nc3cnoc3)c(O)c(=O)n2C)n1 (single isomer, unassigned) [Example 82 D1E1], the IC50 [1] was under 1 nM, the IC50 [2] was 1 to 10 nM and the “hTREX1 vs hTREX2 selectivity” value [3] was “C (C = >50 fold selective for hTREX1)”. It also gave an IC50 [4] of under 10 nM.

For Cc1cnc(C)c(C(c2ccccc2C#N)C(C)c2nc(C(=O)Nc3cnoc3)c(O)c(=O)n2C)n1 (single isomer, unassigned) [Example 82 D2E1], the IC50 [1] was 1 to 10 nM, the IC50 [2] was over 10 nM and the “hTREX1 vs hTREX2 selectivity” value [3] was “C (C = >50 fold selective for hTREX1)”. It also gave an IC50 [4] of over 100 nM.
